The numbers were not newly measured in article PMC11695783 (Frontiers in Pharmacology, 2024), which cites them from elsewhere.

Several values for one entry are separate records, joined by “and”; a condition that tells them apart may be missing. Equal entries are not always repeated.

A word on the bioavailability: it is the share of a dose that reaches the circulation, judged against a reference dose that is usually intravenous.

Details of this data set: method as in Shang et al., 2018; Xianhui, 2010. The following applies: piglets, IM; ref Shang et al., 2018; Xianhui, 2010; cited from earlier work.

Turning to `C=C[C@]1(C)C[C@@H](OC(=O)CSCCN(CC)CC)[C@]2(C)[C@H](C)CC[C@]3(CCC(=O)[C@H]32)[C@@H](C)[C@@H]1O` [tiamulin, Tiamulin, reference compound], the bioavailability was 73.51% and 75.73%.
